{"source": "patent US9969766B2", "about": "“20(R)-ginsenoside Rg3 polyacylated derivatives, preparation and application thereof” (priority 2014, dated 2018)", "key": {"[1]": {"system": "human stomach cancer MGC cells", "assay": "Human stomach cancer MGC in-situ inoculation, survival", "conditions": "for Animal body weight (g) Start / Animal body weight (g) end / Average survival (d) X ± SD / Life extension rate T/C × %: po × 14bid", "from_the_text": "(§1) human breast cancer Bcap-37 model, human lung cancer A549 model, human intestinal cancer LOVO model, human stomach cancer MGC model and human liver cancer QGY model, with tumor cell lines being of the second generation or more, mouse B16 melanoma cell line, mouse Lewis lung cancer model, mouse sarcoma s180 model, all passaged and preserved in Pharmacological Division of Shanghai Institute of Pharmaceutical Industry. 3. Experiment Animals Origins: nude mice, 6-week old, 18-22 g/mouse, provided by Laboratory Animal Center of Chinese Academy of Sciences, Shanghai Branch, with certification No. 2001A032. C57BL/6 mice and Kunming mice, 18-22 g/mouse, provided by Laboratory Animal Center of Chinese Academy of Sciences, Shanghai Branch, with certification SYXK (Shanghai) 2004-0015. Gender: male or female, the same gender for each batch in experiment Animal numbers: 10 mice and 10 nude mice for each of positive control group and test group in experiment, and 20 for negative control group. 4. Experiment Design Dose Settings: doses for 20(R)-ginsenoside Rg3 octo-acetate, 20(R)-ginsenoside Rg3 octo-n-butyrate and 20(R)-ginsenoside Rg3 octo-n-propionate were set as high-dose group (0.3 mg/kg/d), medium-dose group (0.06 mg/kg/d), and low-dose group (0.012 mg/kg/d). Dosage regimen: oral administration, twice daily. human tumor model and cell-inoculated mouse model: po×14 bid; mouse tumor-inoculated model: po×10 bid. Control Trial: negative control group: given with the same volume of 5% CMC-Na as the test group, and the same dosage regimen as the test group. positive control group: Cyclophosphamide CTX 30 mg/kg, MMC 2 mg/kg and 5Fu 30 mg/kg by intraperitoneal or intravenous administration, once daily, for seven consecutive days. 5. Experiment Method and Key Steps 5.1 Anti-Tumor Test 5.1.1 Subcutaneous Inoculation Model"}, "[2]": {"system": "human intestinal cancer LOVO cells", "conditions": "po × 14bid", "from_the_text": "as §1, with “MMC 2 mg/kg and 5Fu 30 mg/kg by intraperitoneal or intravenous administration, once daily, for seven consecutive days.” left out\nLOVO intestinal cancer cells (cultured in vitro) of logarithmic growth stage were taken under sterile condition and prepared into cell suspensions of about 1.8×10^7/ml using RPMI1640 culture medium as diluent. The nude mice were subjected to general anesthesia and cut in belly after routine disinfection to belly skin, the spleens were taken out and inoculated with LOVO intestinal cancer cell suspensions (0.05 ml/mouse) and then restored, the incisions were sutured, and the mice were placed in the cages and then put in the laminar flow rack."}, "[3]": {"assay": "Solubility of the isolated products", "format": "physicochemical"}, "mouse sarcoma S180 cells": {"system": "mouse sarcoma S180 cells", "assay": "Mouse sarcoma S180 metastasis model", "conditions": "po × 14bid", "from_the_text": "as §1"}, "[4]": {"system": "human liver cancer QGY cells", "assay": "Human liver cancer QGY liver in-situ inoculation, survival", "conditions": "po × 14bid", "from_the_text": "as §1\nUnder sterile condition, the in vivo passage of the second generation of QGY tumor source of vigorous growth stage was prepared into cell suspensions of about 1-2×10^7/ml by homogenization (1:6), and the homogenates were filtered using 100-mesh stainless steel screen, getting ready for use. The nude mice were disinfected routinely and anaesthetized and cut at the xiphoid in the middle of the abdominal cavity to expose the liver, the cell suspensions (0.05 ml) were injected into liver parenchyma using imported 28 ga ½ ml syringes, the abdominal cavity was closed and then sutured layer by layer. The nude mice were fed in the laminar flow rack, with all the feed, packing, cage and contact instruments being sterilized under high pressure before use."}, "[5]": {"system": "human lung cancer A549 cells", "assay": "Human lung cancer A549 (subcutaneous inoculation) metastasis model", "conditions": "po × 14bid"}}, "note": "Read-outs that look alike come from different tables or passages of the source."}
{"smiles": "CC(=O)OC[C@H]1O[C@@H](OC2CC[C@]3(C)C(CC[C@@]4(C)C3C[C@H](OC(C)=O)C3C([C@@](C)(O)CCC=C(C)C)CC[C@@]34C)C2(C)C)[C@H](OC2O[C@H](COC(C)=O)[C@@H](OC(C)=O)[C@H](OC(C)=O)[C@H]2OC(C)=O)[C@@H](OC(C)=O)[C@@H]1OC(C)=O", "note": "(stereo partly drawn) [Rg3-octo-acetate, 20 (R)-ginsenoside Rg3 octaacetate]", "values": [{"measurement": "Animal body weight (g) Start", "setting": "[1]; 0.012 mg/kg/d", "value": 19.8, "unit": "g"}, {"measurement": "Animal body weight (g) end", "setting": "[1]; 0.012 mg/kg/d", "value": 25.4, "unit": "g"}, {"measurement": "Average survival (d) X ± SD", "setting": "[1]; 0.012 mg/kg/d", "value": "38.84 ± 0.14", "unit": "days"}, {"measurement": "Life extension rate T/C × %", "setting": "[1]; 0.012 mg/kg/d", "value": 170.56, "unit": "%"}, {"measurement": "Animal body weight (g) Start", "setting": "[1]; 0.06 mg/kg/d", "value": 19.6, "unit": "g"}, {"measurement": "Animal body weight (g) end", "setting": "[1]; 0.06 mg/kg/d", "value": 24.6, "unit": "g"}, {"measurement": "Average survival (d) X ± SD", "setting": "[1]; 0.06 mg/kg/d", "value": "41.21 ± 0.11", "unit": "days"}, {"measurement": "Life extension rate T/C × %", "setting": "[1]; 0.06 mg/kg/d", "value": 180.98, "unit": "%"}, {"measurement": "Animal body weight (g) Start", "setting": "[1]; 0.3 mg/kg/d", "value": 19.7, "unit": "g"}, {"measurement": "Animal body weight (g) end", "setting": "[1]; 0.3 mg/kg/d", "value": 24.1, "unit": "g"}, {"measurement": "Average survival (d) X ± SD", "setting": "[1]; 0.3 mg/kg/d", "value": "46.04 ± 0.12", "unit": "days"}, {"measurement": "Life extension rate T/C × %", "setting": "[1]; 0.3 mg/kg/d", "value": 202.19, "unit": "%"}, {"measurement": "life-prolonging effect versus positive control group", "setting": "[1]; high-dose groups, summary of Table 7-9: human stomach, intestinal and liver cancer", "value": "better than the positive control group"}, {"measurement": "Average survival (d) X ± SD", "setting": "[2]; 0.012 mg/kg/d", "value": "24.59 ± 4.5", "unit": "days"}, {"measurement": "Life extension rate T/C × %", "setting": "[2]; 0.012 mg/kg/d", "value": 179.99, "unit": "%"}, {"measurement": "Average survival (d) X ± SD", "setting": "[2]; 0.06 mg/kg/d", "value": "25.80 ± 4.8", "unit": "days"}, {"measurement": "Life extension rate T/C × %", "setting": "[2]; 0.06 mg/kg/d", "value": 188.90, "unit": "%"}, {"measurement": "Average survival (d) X ± SD", "setting": "[2]; 0.3 mg/kg/d", "value": "31.50 ± 5.1", "unit": "days"}, {"measurement": "Life extension rate T/C × %", "setting": "[2]; 0.3 mg/kg/d", "value": 230.59, "unit": "%"}, {"measurement": "Solubility in ethanol", "setting": "[3]; ethanol", "value": "soluble"}, {"measurement": "Solubility in water", "setting": "[3]; water", "value": "soluble"}, {"measurement": "Anti-metastasis rate %", "setting": "mouse sarcoma S180 cells; 0.012 mg/kg/d", "value": 51.50, "unit": "%"}, {"measurement": "Lung clone numbers (mice) X ± SD", "setting": "mouse sarcoma S180 cells; 0.012 mg/kg/d", "value": "1.43 ± 7.1"}, {"measurement": "Anti-metastasis rate %", "setting": "mouse sarcoma S180 cells; 0.06 mg/kg/d", "value": 65.80, "unit": "%"}, {"measurement": "Lung clone numbers (mice) X ± SD", "setting": "mouse sarcoma S180 cells; 0.06 mg/kg/d", "value": "1.01 ± 7.2"}, {"measurement": "Anti-metastasis rate %", "setting": "mouse sarcoma S180 cells; 0.3 mg/kg/d", "value": 78.94, "unit": "%"}, {"measurement": "Lung clone numbers (mice) X ± SD", "setting": "mouse sarcoma S180 cells; 0.3 mg/kg/d", "value": "0.62 ± 7.3"}, {"measurement": "Animal body weight (g) Start", "setting": "[4]; 0.012 mg/kg/d", "value": 19.1, "unit": "g"}, {"measurement": "Animal body weight (g) end", "setting": "[4]; 0.012 mg/kg/d", "value": 25.2, "unit": "g"}, {"measurement": "Average survival (d) X ± SD", "setting": "[4]; 0.012 mg/kg/d", "value": "37.26 ± 4.5", "unit": "days"}, {"measurement": "Life extension rate T/C × %", "setting": "[4]; 0.012 mg/kg/d", "value": 159.58, "unit": "%"}, {"measurement": "Animal body weight (g) Start", "setting": "[4]; 0.06 mg/kg/d", "value": 19.1, "unit": "g"}, {"measurement": "Animal body weight (g) end", "setting": "[4]; 0.06 mg/kg/d", "value": 24.3, "unit": "g"}, {"measurement": "Average survival (d) X ± SD", "setting": "[4]; 0.06 mg/kg/d", "value": "38.90 ± 4.1", "unit": "days"}, {"measurement": "Life extension rate T/C × %", "setting": "[4]; 0.06 mg/kg/d", "value": 166.59, "unit": "%"}, {"measurement": "Animal body weight (g) Start", "setting": "[4]; 0.3 mg/kg/d", "value": 19.3, "unit": "g"}, {"measurement": "Animal body weight (g) end", "setting": "[4]; 0.3 mg/kg/d", "value": 24.8, "unit": "g"}, {"measurement": "Average survival (d) X ± SD", "setting": "[4]; 0.3 mg/kg/d", "value": "42.49 ± 5.0", "unit": "days"}, {"measurement": "Life extension rate T/C × %", "setting": "[4]; 0.3 mg/kg/d", "value": 181.98, "unit": "%"}, {"measurement": "Anti-metastasis rate %", "setting": "[5]; 0.012 mg/kg/d", "value": 49.91, "unit": "%"}, {"measurement": "Lung clone numbers (mice) X ± SD", "setting": "[5]; 0.012 mg/kg/d", "value": "0.96 ± 0.12"}, {"measurement": "Anti-metastasis rate %", "setting": "[5]; 0.06 mg/kg/d", "value": 57.90, "unit": "%"}, {"measurement": "Lung clone numbers (mice) X ± SD", "setting": "[5]; 0.06 mg/kg/d", "value": "0.81 ± 0.15"}, {"measurement": "Anti-metastasis rate %", "setting": "[5]; 0.3 mg/kg/d", "value": 68.52, "unit": "%"}, {"measurement": "Lung clone numbers (mice) X ± SD", "setting": "[5]; 0.3 mg/kg/d", "value": "0.84 ± 0.13"}]}
